Laboratory results as given in the supplement of paper PMC10307832.

How the values were obtained:
Experiment in all cases: relative viability (nuclei count vs DMSO), 5 days (fraction); higher = more cells survive
[1] = compound: C[C@]12O[C@H](C[C@]1(O)CO)n1c3ccccc3c3c4c(c5c6ccccc6n2c5c31)CNC4=O [Lestaurtinib] + C[C@@H](Oc1cc(-c2cnn(C3CCNCC3)c2)cnc1N)c1c(Cl)ccc(F)c1Cl [Crizotinib] (partner 1 µM)
Outline: (§1)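 After 5 days of treatment, lung cancer cells in 1536-well plates were fixed and stained in a single step (final 0.05% Triton X-100, 1% formaldehyde, 1 ug/ml Hoechst) and their nuclei counted on 4× images. Treatment had been applied by pin tool the day after seeding as one drug alone or as a fixed anchor-drug dose with five library-drug doses (not always all listed) in √10 steps. Relative viability is the nuclei count of treated wells divided by that of vehicle wells, and values are medians of duplicate plates.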

Lestaurtinib + OSI-027 = compound: C[C@]12O[C@H](C[C@]1(O)CO)n1c3ccccc3c3c4c(c5c6ccccc6n2c5c31)CNC4=O [Lestaurtinib] + COc1cccc2cc(-c3nc([C@H]4CC[C@H](C(=O)O)CC4)n4ncnc(N)c34)[nH]c12 [OSI-027] (partner 0.5 µM)
Outline: as §1

[2] = compound: C1/C(=C\C2=CC=CS2)/C(=O)/C(=C/C3=CC=CS3)/C1 + O=C(CCCCCCC(=O)Nc1ccccc1)NO [Vorinostat] (partner 1 µM)
Outline: as §1

Cell Line | relative viability ([1]; first compound 0.005 µM) | relative viability ([1]; first compound 0.01581 µM) | relative viability ([1]; first compound 0.05 µM) | relative viability ([1]; first compound 0.1581 µM) | relative viability ([1]; first compound 0.5 µM) | relative viability (Lestaurtinib + OSI-027; first compound 0.005 µM) | relative viability (Lestaurtinib + OSI-027; first compound 0.01581 µM) | relative viability (Lestaurtinib + OSI-027; first compound 0.05 µM) | relative viability (Lestaurtinib + OSI-027; first compound 0.1581 µM) | relative viability (Lestaurtinib + OSI-027; first compound 0.5 µM) | relative viability ([2]; first compound 0.2 µM) | relative viability ([2]; first compound 0.6325 µM) | relative viability ([2]; first compound 2 µM) | relative viability ([2]; first compound 6.325 µM) | relative viability ([2]; first compound 20 µM)
NCI-H1355 | 1.29 | 1.09 | 1.01 | 0.86 | 0.549 | 0.387 | 0.438 | 0.362 | 0.309 | 0.286 | 0.664 | 0.627 | 0.705 | 0.598 | 0.587
EKVX | 0.855 | 1.11 | 0.945 | 0.892 | 0.551 | 0.773 | 0.697 | 0.79 | 0.717 | 0.602 | 0.893 | 0.625 | 0.873 |  | 0.678
NCI-H441 | 0.912 | 0.654 | 0.395 | 0.505 | 0.308 | 0.597 | 0.589 | 0.279 | 0.342 | 0.303 | 0.863 | 0.676 | 0.683 | 0.743 | 0.78
NCI-H1975 | 0.943 | 0.988 | 0.707 | 0.867 | 0.586 | 0.795 | 0.75 | 0.534 | 0.412 | 0.347 | 0.814 | 0.671 | 0.774 | 0.689 | 0.731
HCC-78 | 0.318 | 0.396 | 0.318 | 0.287 | 0.267 | 0.34 | 0.417 | 0.323 | 0.381 | 0.29 | 0.51 | 0.401 | 0.441 | 0.425 | 0.385
NCI-H2085 | 0.904 | 0.856 | 0.748 | 0.884 | 0.692 | 0.707 | 0.822 | 0.801 | 0.658 | 0.521 | 0.739 | 0.808 | 0.857 | 0.7 | 0.715
H3255 | 0.879 | 0.988 | 0.825 | 0.649 | 0.461 | 0.63 | 0.515 | 0.56 | 0.36 | 0.276 | 0.756 | 0.856 | 0.427 | 0.758 | 0.875
NCI-H2087 | 1.07 | 0.789 | 1.04 | 0.746 | 0.253 | 0.627 | 0.634 | 0.531 | 0.408 | 0.338 | 0.623 | 0.656 | 0.7 | 0.616 | 0.361
LC-2-ad | 0.467 | 0.325 | 0.433 | 0.366 | 0.251 | 0.892 | 0.783 | 0.506 | 0.483 | 0.304 | 0.696 | 0.745 | 0.711 | 0.647 | 0.64
PC-3 [JPC-3] | 0.975 | 1.15 | 1.01 | 1.15 | 0.693 | 0.809 | 0.803 | 0.662 | 0.65 | 0.439 |  | 0.985 | 0.954 | 0.74 | 1.03
EBC-1 | 0.182 | 0.225 | 0.183 | 0.184 | 0.175 |  |  |  |  |  |  |  |  |  | 
HCC-15 | 1.04 | 1.01 | 0.595 | 0.628 | 0.291 | 0.717 | 0.757 | 0.658 | 0.464 | 0.185 | 0.876 | 0.846 | 0.842 | 0.772 | 0.743
NCI-H1563 | 0.913 | 0.921 | 0.837 | 0.907 | 0.794 | 0.724 | 0.755 | 0.757 | 0.777 | 0.734 |  |  |  |  | 
COR-L 105 | 0.703 | 1.02 | 0.684 | 0.618 | 0.233 | 0.616 | 0.696 | 0.565 | 0.441 | 0.23 | 0.653 | 0.969 | 0.852 | 0.391 | 0.669
NCI-H520 | 0.653 | 0.687 | 0.332 | 0.42 | 0.344 | 0.299 | 0.286 | 0.272 | 0.206 | 0.196 | 0.767 | 0.787 | 0.733 |  | 0.72
LU99A | 0.606 | 0.49 | 0.275 | 0.314 | 0.162 | 0.288 | 0.263 | 0.262 | 0.249 | 0.203 | 0.461 | 0.475 | 0.462 | 0.441 | 0.387
NCI-H1666 | 1.04 | 1.38 | 1.39 | 0.96 | 0.409 | 0.904 | 0.934 | 0.917 | 0.757 | 0.518 | 1.09 | 1.02 | 0.874 | 0.893 | 0.928
NCI-H2170 | 1.05 | 1.06 | 0.68 | 0.924 | 0.292 | 0.726 | 0.523 | 0.45 | 0.561 | 0.471 | 0.898 | 0.814 | 0.787 | 0.728 | 0.766
NCI-H522 |  |  |  |  |  | 0.816 | 0.791 | 0.679 | 0.709 | 0.572 | 0.967 | 0.911 | 0.893 | 1.01 | 0.909
LCLC-97TM1 | 0.382 | 0.293 | 0.241 | 0.259 | 0.149 | 0.547 | 0.42 | 0.125 | 0.215 | 0.182 | 0.845 | 0.818 | 0.757 | 0.631 | 0.66
NCI-H1299 | 0.912 | 0.953 | 0.542 | 0.68 | 0.467 |  |  |  |  |  |  |  |  |  | 

Cell Line | relative viability ([1]; first compound 0.005 µM) | relative viability ([1]; first compound 0.01581 µM) | relative viability ([1]; first compound 0.05 µM) | relative viability ([1]; first compound 0.1581 µM) | relative viability ([1]; first compound 0.5 µM) | relative viability (Lestaurtinib + OSI-027; first compound 0.005 µM) | relative viability (Lestaurtinib + OSI-027; first compound 0.01581 µM) | relative viability (Lestaurtinib + OSI-027; first compound 0.05 µM) | relative viability (Lestaurtinib + OSI-027; first compound 0.1581 µM) | relative viability (Lestaurtinib + OSI-027; first compound 0.5 µM) | relative viability ([2]; first compound 0.2 µM) | relative viability ([2]; first compound 0.6325 µM) | relative viability ([2]; first compound 2 µM) | relative viability ([2]; first compound 6.325 µM) | relative viability ([2]; first compound 20 µM)
NCI-H3122 | 0.321 | 0.286 | 0.322 | 0.33 | 0.273 | 1.36 | 1.4 | 0.99 | 0.875 | 0.339 | 1.08 | 1.08 | 0.907 | 0.639 | 0.708
NCI-H1395 |  |  |  |  |  | 0.546 | 0.655 | 0.5 | 0.482 | 0.374 | 0.668 | 0.767 | 1.03 | 0.744 | 0.8
NCI-H2009 | 1.02 | 1.09 | 1 | 0.637 | 0.454 | 0.578 | 0.449 | 0.365 | 0.441 | 0.24 | 0.721 | 0.733 | 0.729 |  | 0.68
NCI-H1651 | 0.897 | 0.997 | 0.837 | 0.858 | 0.551 | 0.745 | 0.799 | 0.566 | 0.753 | 0.493 | 0.553 | 0.63 | 0.694 | 0.509 | 0.558
HARA | 1.19 | 1.21 | 0.86 | 0.994 | 0.162 | 0.629 | 0.469 | 0.324 | 0.278 | 0.104 | 0.722 | 0.498 | 0.641 | 0.485 | 0.458
NCI-H1944 | 1.13 | 1.28 | 0.745 | 0.695 | 0.362 | 0.483 | 0.406 | 0.322 | 0.31 | 0.292 | 0.619 | 0.535 | 0.559 |  | 0.528
NCI-H2347 | 0.715 | 0.854 | 0.71 | 0.585 | 0.545 | 0.402 | 0.423 | 0.409 | 0.33 | 0.367 | 0.627 | 0.561 | 0.601 | 0.61 | 0.667
201T | 1.09 | 1.03 | 1.08 | 1.08 | 0.903 | 0.766 | 0.982 |  | 0.63 | 0.447 | 0.965 | 0.951 | 1.07 | 0.728 | 0.935
PC-14 | 0.883 | 0.958 | 0.786 | 0.595 | 0.688 | 0.805 | 0.592 | 0.609 | 0.623 | 0.116 | 0.855 | 0.809 | 0.843 | 0.614 | 0.687
Calu-6 | 0.753 | 0.784 | 0.282 | 0.293 | 0.16 |  |  |  |  |  |  |  |  |  | 
NCI-H1703 | 0.81 | 0.524 | 0.263 | 0.257 | 0.0934 |  |  |  |  |  |  |  |  |  | 
NCI-H1650 | 0.901 | 1.13 | 0.841 | 1.29 | 0.308 | 0.642 | 0.829 | 0.594 | 0.652 | 0.357 | 0.49 | 0.44 | 0.796 | 0.56 | 0.498
NCI-H727 | 1.26 | 0.911 | 0.718 | 0.613 | 0.323 | 0.614 | 0.675 | 0.525 | 0.698 | 0.498 | 1.23 | 1.23 | 1.28 |  | 1.12
NCI-H2342 |  |  |  |  |  | 0.571 | 0.672 | 0.547 | 0.648 | 0.549 | 0.667 | 0.997 | 0.85 | 0.757 | 0.683
NCI-H1792 | 0.901 | 1.18 | 0.49 | 0.799 | 0.476 | 0.95 | 0.698 | 0.83 | 0.776 | 0.424 |  |  |  |  | 
NCI-H1623 |  |  |  |  |  | 0.4 | 0.412 | 0.428 | 0.399 | 0.398 |  |  |  |  | 
SW 900 |  |  |  |  |  | 0.561 | 0.702 | 0.623 | 0.522 | 0.527 | 0.525 | 0.485 | 0.569 | 0.59 | 0.558
NCI-H1648 |  |  |  |  |  | 0.233 | 0.271 | 0.285 | 0.246 | 0.261 | 0.435 | 0.408 | 0.603 | 0.366 | 0.297
NCI-H1793 |  |  |  |  |  | 0.291 | 0.257 | 0.242 | 0.274 | 0.183 | 1.02 | 0.753 | 0.892 | 0.654 | 0.734
IA-LM | 0.862 | 1.06 | 1.14 | 0.921 | 0.415 |  |  |  |  |  | 0.959 | 1.09 | 1.01 | 0.885 | 0.852
A549 | 0.77 | 0.771 | 0.227 | 0.183 | 0.0593 |  |  |  |  |  |  |  |  |  | 
